# What was measured:
# [1] = tested on: Ergosterol Biosynthesis, Candida albicans_C286; assay: Inhibition of ergosterol biosynthesis; assay type: cell-based, Candida albicans; conditions: RPMI-1640, 30° C., 48 h, read-out: IC50 Values for Inhabitation of Ergosterol Biosynthesis
# Description: (§1) Compounds of the invention were tested for their ability to inhibit ergosterol biosynthesis. Testing was performed in 96-well round-bottom microtitration plates. Cell suspensions were prepared in RPMI-1640 medium and were adjusted to give a final inoculum concentration of 0.5×10^3 to 2.5×10^3 cells/ml. The plates were incubated incubated at 30° C. for 48 h before growth was assessed. The MIC of each compounds was defined as the lowest concentration at which there was 80% inhibition of growth compared with that in a drug-free control [O. N. Breivik and J. L. Owades, Agric. Food Chem., 5 (1957) 360-363; T. F. Patterson, S. G. Revankar, W. R. Kirkpatrick, O. Dib, A. W. Fothergill, S. W. Redding, D. A. Sutton and M. G. Rinaldi, J. Clin. Microbiol., 34 (1996) 1794-1797]. Ergosterol content was calculated as a percentage of the wet weight of the cell [National Committee for Clinical Laboratory Standards. 1997. Reference method for broth dilution antifungal susceptibility testing of yeasts, Approved standard. Document M27-A, National Committee for Clinical Laboratory Standards, Wayne, Pa.].
# [2] = tested on: Ergosterol Biosynthesis, Aspergillus fumigatus_ND 158; assay: Inhibition of ergosterol biosynthesis; assay type: cell-based, Aspergillus fumigatus; conditions: RPMI-1640, 30° C., 48 h, read-out: IC50 Values for Inhabitation of Ergosterol Biosynthesis
# Description: as §1
# [3] = tested on: Aspergillus Flavus; assay: In vitro activity test, agar dilution method (GMMIC); assay type: cell-based; conditions: 9 organisms, Kimmig's agar, 25° C.
# Description: (§2) Organisms listed in Table 4 were tested according to an agar dilution method: Suspensions of each microorganism were prepared to contain […] colony forming units (cfu)/mL. All drugs were dissolved in a few drops of DMSO then diluted with ethanol—water (1/1, v/v) to make a stock solution of 500 μg/mL. The agar dilution method was performed in a medium of Kimmig's agar (K. A., Merck) −0.5% glycerol [R. A. Fromtling, G. K. Abruzzo and A. Ruiz, Mycopathologia, 106 (1989) 163-166]. Plates of Kimmig's agar containing serial dilutions (25 to 0.01 μg/mL) of the drugs were inoculated with 10 μL of the fungal inocula and incubated at 25° C. […] for yeasts and up to 5 days for filamentous fungi. Following incubation, GMMICs (geometric mean minimum inhibitory concentration μg/mL) were determined. In the table POCZ indicates posaconazole, ITRZ indicates itraconazole, and FLUZ indicates fluconazole. [Patterson, T. F., S. G. Revankar, W. R. Kirkpatrick, O. Dib, A. W. Fothergill, S. W. Redding, D. A. Sutton, and M. G. Rinaldi, J. Clin. Microbiol. 34 (1996) 1794-1797].
# [4] = tested on: Trichophyton rubrum; assay: as above; assay type: cell-based; conditions: 17 organisms, Kimmig's agar, 25° C.
# Description: as §2
# [5] = tested on: Cryptococcus neoformans; assay: as above; assay type: cell-based; conditions: 10 organisms, Kimmig's agar, 25° C.
# Description: as §2
# [6] = tested on: Candida Krusei; assay: as above; assay type: cell-based; conditions: 22 organisms, Kimmig's agar, 25° C.
# Description: as §2
# [7] = tested on: Microsporum canis; assay: as above; assay type: cell-based; conditions: 6 organisms, Kimmig's agar, 25° C.
# Description: as §2
IC50 [1] [nM],IC50 [2] [nM],SMILES,further results
31.9,,"CC(O)C(C)n1ncn(-c2ccc(N3CCN(c4ccc(SCC5OCC(Cn6cncn6)(c6ccc(F)cc6F)O5)cc4)CC3)cc2)c1=O (centres unmarked) [I-Re (D), 4-(4-(4-(4-((4-((1H-1,2,4-triazol-1-yl)methyl)-4-(2,4-difluorophenyl)-1,3-dioxolan-2-yl)methylthio)phenyl)piperazin-1-yl)phenyl)-1-(3-hydroxybutan-2-yl)-1H-1,2,4-triazol-5(4H)-one]",
,9.6,"CC(O)C(C)n1ncn(-c2ccc(N3CCN(c4ccc(SCC5CCC(Cn6cncn6)(c6ccc(F)cc6F)O5)cc4)CC3)cc2)c1=O (centres unmarked) [I-Re (T), 4-(4-(4-(4-((5-((1H-1,2,4-triazol-1-yl)methyl)-5-(2,4-difluorophenyl)tetrahydrofuran-2-yl)methylthio)phenyl)piperazin-1-yl)phenyl)-1-(3-hydroxybutan-2-yl)-1H-1,2,4-triazol-5(4H)-one]",
33.4,9.9,"CCC(C(C)O)n1ncn(-c2ccc(N3CCN(c4ccc(SCC5OCC(Cn6cncn6)(c6ccc(F)cc6F)O5)cc4)CC3)cc2)c1=O (centres unmarked) [I-Rf (D), 4-(4-(4-(4-((4-((1H-1,2,4-triazol-1-yl)methyl)-4-(2,4-difluorophenyl)-1,3-dioxolan-2-yl)methylthio)phenyl)piperazin-1-yl)phenyl)-1-(2-hydroxypentan-3-yl)-1H-1,2,4-triazol-5(4H)-one]",
32.1,9.5,"CCC(C(C)O)n1ncn(-c2ccc(N3CCN(c4ccc(SCC5CCC(Cn6cncn6)(c6ccc(F)cc6F)O5)cc4)CC3)cc2)c1=O (centres unmarked) [I-Rf (T), 4-(4-(4-(4-((5-((1H-1,2,4-triazol-1-yl)methyl)-5-(2,4-difluorophenyl)tetrahydrofuran-2-yl)methylthio)phenyl)piperazin-1-yl)phenyl)-1-(2-hydroxypentan-3-yl)-1H-1,2,4-triazol-5(4H)-one]",
33.8,10.2,"C=CC(C)n1ncn(-c2ccc(N3CCN(c4ccc(SCC5OCC(Cn6cncn6)(c6ccc(F)cc6F)O5)cc4)CC3)cc2)c1=O (centres unmarked) [I-Rg (D), 4-(4-(4-(4-((4-((1H-1,2,4-triazol-1-yl)methyl)-4-(2,4-difluorophenyl)-1,3-dioxolan-2-yl)methylthio)phenyl)piperazin-1-yl)phenyl)-1-(but-3-en-2-yl)-1H-1,2,4-triazol-5(4H)-one]",
34.3,10.3,"CCC(C)n1ncn(-c2ccc(N3CCN(c4ccc(CSC5OCC(Cn6cncn6)(c6ccc(F)cc6F)O5)cc4)CC3)cc2)c1=O (centres unmarked) [II-Ra (D), 4-(4-(4-(4-((4-((1H-1,2,4-triazol-1-yl)methyl)-4-(2,4-difluorophenyl)-1,3-dioxolan-2-ylthio)methyl)phenyl)piperazin-1-yl)phenyl)-1-sec-butyl-1H-1,2,4-triazol-5(4H)-one]",
31.1,9.8,"CCC(C(C)O)n1ncn(-c2ccc(N3CCN(c4ccc(CSC5OCC(Cn6cncn6)(c6ccc(F)cc6F)O5)cc4)CC3)cc2)c1=O (centres unmarked) [II-Rf (D), 4-(4-(4-(4-((4-((1H-1,2,4-triazol-1-yl)methyl)-4-(2,4-difluorophenyl)-1,3-dioxolan-2-ylthio)methyl)phenyl)piperazin-1-yl)phenyl)-1-(2-hydroxypentan-3-yl)-1H-1,2,4-triazol-5(4H)-one]",
32.9,9.3,"CCC(C(C)O)n1ncn(-c2ccc(N3CCN(c4ccc(CSC5CCC(Cn6cncn6)(c6ccc(F)cc6F)O5)cc4)CC3)cc2)c1=O (centres unmarked) [II-Rf (T), 4-(4-(4-(4-((5-((1H-1,2,4-triazol-1-yl)methyl)-5-(2,4-difluorophenyl)tetrahydrofuran-2-ylhio)methyl)phenyl)piperazin-1-yl)phenyl)-1-(2-hydroxypentan-3-yl)-1H-1,2,4-triazol-5(4H)-one]",
,,"CCC(C)n1ncn(-c2ccc(N3CCN(c4ccc(OCC5COC(Cn6cncn6)(c6ccc(Cl)cc6Cl)O5)cc4)CC3)cc2)c1=O (centres unmarked) [ITRZ, itraconazole]",GMMICS (geometric mean minimum inhibitory concentration) [3]: 0.35 µg/mL; GMMICS (geometric mean minimum inhibitory concentration) [4]: 3.1 µg/mL; GMMICS (geometric mean minimum inhibitory concentration) [5]: 0.49 µg/mL; GMMICS (geometric mean minimum inhibitory concentration) [6]: 0.60 µg/mL; GMMICS (geometric mean minimum inhibitory concentration) [7]: 1.2 µg/mL
,11.8,"CC[C@@H]([C@H](C)O)n1ncn(-c2ccc(N3CCN(c4ccc(OC[C@@H]5CO[C@@](Cn6cncn6)(c6ccc(F)cc6F)C5)cc4)CC3)cc2)c1=O [POCZ, posaconazole, reference compound]",
